# Laboratory results from patent US6316409A, “Modified ligands of calcium-dependent binding proteins” (Medical Research Council, priority 1996, dated 2001).
# Entries after “also recorded” stand apart in the source; their conditions may differ. Peptide text beside a SMILES is read from it.
# Legend:
# calmodulin = calmodulin (Bos taurus, UniProt P62157); experiment: koff by competition experiments, native PAGE of fluorescein-labelled peptide/calmodulin complexes; assay type: binding, bovine; design: Complexes between calmodulin from bovine brain (1 μM, Sigma); purchased Sigma; host or cells: bovine brain (tissue-derived); settings: for dissociation from calmodulin in competition with excess unlabelled peptide, in words: FIG. 3; for koff: competition with 30-fold excess unlabelled peptide, room temperature, gel buffer, read-out: koff (s^-1)^C
# Method: Complexes between calmodulin from bovine brain (1 μM, Sigma) and fluorescein-labelled sMLCK-derived peptides (as described in Table 1 (SEQ ID NOS:2-18)) were prepared in gel buffer (25% gel mix [4 g sucrose+1 mg bromophenol blue in water to give a 10 ml solution]+75% TBSC [50 mM TRIS pH 7.4, […]+50 μM CaCl2)] and run on a 15% native PAGE gel (5 ml 30% acrylamide-bisacrylamide solution+4.5 ml water+0.5 ml 3M Tris, pH 8.8, +1 μl 1M CaCl2 polymerised with 30 μl 25% ammonium persulphate and 9 μl TEMED) using 14.4 g/l glycine+3 g/l Tris-base+0.1 mM CaCl2 as running buffer. Peptides were labelled either with iodoacetamido fluorescein (Molecular Probes) or with iodoacetamido-LC-biotin (Pierce) essentially as previously described by Neri et al., (1995). In these conditions, the fluorescence of the positively-charged labelled peptides can be detected only if they form a stable complex with calmodulin.
# In order to obtain an independent experimental confirmation if the BIAcore results, koff constants for peptides 1-17 towards calmodulin were determined by competition experiments. 30 nM fluorescein-labelled peptide/calmodulin complexes in gel buffer were competed at room temperature for different times with 30-fold excess of unlabelled peptide. The resulting mixtures were run on native PAGE gels and imaged by LUANA as described above. The bands in the image obtained were integrated using the LUANA software (Neri et al., 1996) and the corresponding intersities plotted versus time and fitted with a single exponential, from which koff constants were derived. In order to normalise band intensities against pipetting errors, the samples contained 6 nM free fluorescein which ran with the front. The fluorescein bands were integrated and used to normalise the calmodulin/fluorescent peptide complex band intensity. The results of competitions for peptides 1, 2, 3, 6, 9, and 14 are shown in this FIG. 3. Incubation time in minutes is indicated under the lanes.
# The volumes of the bands were plotted versus competition time and fitted to a single exponential, from which koff values were derived.
# The fastest competitions (peptides 1-4, 9 and 13, SEQ ID NOS:2-5,10, and 14) were over by the time the calmodulin/fluorescent peptide complex entered the gel (approximately 5-10 minutes from pipetting a molar excess of unlabelled peptide; FIG. 3), from which a condition on the off-rate constant koff >1×10^-3 s^-1 was derived. Even for these fast off-rates, complexes can be detected by native polyacrylamide gel electrophoresis because of the well known gel "cage effect" (Fried and Crothers, 1981; Garner and Revzin, 1981).
# bovine brain calmodulin [1] = target: T1, bovine brain calmodulin (Bos taurus, UniProt P62157); experiment: stopped-flow measurement of kisom of calmodulin-binding peptides; settings: changes in tryptophan fluorescence
# T1 construct: Complexes between calmodulin from bovine brain (1 μM, Sigma); purchased Sigma; host or cells: bovine brain (tissue-derived)
# From the text: It has been shown by Torok and Trentham (1994) that smooth muscle MLCK-derived peptides bind to calmodulin with a biphasic kinetic according to the scheme: [drawing 1]
# in which P is the peptide, C is calmodulin, P-C is the first complex formed on association of P and C, which then undergoes a conformational isomerisation to P-C*.
# (§1) For a kinetic and thermodynamic characterisation of the binding of the peptides of the present invention to bovine brain calmodulin, we have measured the kinetic isomerisation, association, and dissociation constants from which dissociation constants can be derived.
# kisom constants have been measured by stopped-flow, detecting changes in tryptophan fluorescence for all the peptides except 3 (SEQ ID NO:4), in which the tryptophan is replaced by alanine.
# bovine brain calmodulin [2] = target: T1, bovine brain calmodulin; experiment: BIAcore surface plasmon resonance, kon and koff of calmodulin binding to biotinylated peptides; settings: for koff / kon / increase in kon with respect to the wild-type peptide 1: BIAcore; for koff: read-out: koff (s^-1)^B; for kon: read-out: kon (s^-1 M^-1)^B
# From the text: as §1
# koff =k-1·k-2 /(k+2 +k-2)
# Real-time interaction analysis by surface plasmon resonance on a BIAcore instrument (Jonsson et al., 1991) was used to determine kon and koff constants. Biotinylated peptides 1-17 were bound to commercially available streptavidin-coated microsensor chips (Pharmacia Biosensor), in order to achieve a surface capacity of 100-200 surface plasmon resonance units of calmodulin bound. Different concentrations of calmodulin (5, 10, 20, 50 and 100 nM in the order of FIG. 2) were injected and allowed to associate with the peptides. Regeneration of the surface was achieved by injection of 5 μl TBS+[…] which dissociates the calmodulin-peptide complex.
compound,measurement,setting,value
"CC[C@H](C)[C@H](NC(=O)[C@H](Cc1ccccc1)NC(=O)[C@H](CC(N)=O)NC(=O)[C@H](CCCCN)NC(=O)[C@H](CCCCN)NC(=O)[C@H](Cc1c[nH]c2ccccc12)NC(=O)[C@H](CCCNC(=N)N)NC(=O)[C@H](C)NC(=O)[C@H](C)NC(=O)[C@H](C)NC(=O)[C@@H](N)CS)C(=O)N[C@@H](C)C(=O)N[C@H](C(=O)N[C@@H](CO)C(=O)N[C@@H](C)C(=O)N[C@@H](C)C(=O)N[C@@H](CC(N)=O)C(=O)N[C@@H](CCCNC(=N)N)C(=O)N[C@@H](Cc1ccccc1)C(=O)N[C@@H](CCCCN)C(=O)N[C@@H](CCCCN)C(=O)N[C@H](C(=O)N[C@@H](CO)C(N)=O)[C@@H](C)CC)C(C)C [Peptide 1, CAAA-RWKKNFIAVSAANRFKKIS-CONH2] (H-CAAARWKKNFIAVSAANRFKKIS-NH2; N-terminus assumed)","dissociation from calmodulin in competition with excess unlabelled peptide, in words",calmodulin,dissociated from calmodulin in a few minutes
same,koff,calmodulin,≥ 0.001 s⁻¹
same,kisom. (s^-1)^A,bovine brain calmodulin [1],1.9 (10.7) × 10^-1 s^-1
same,koff,bovine brain calmodulin [2],0.0024 s⁻¹
same,kon,bovine brain calmodulin [2],650000 M⁻¹ s⁻¹
CC[C@H](C)[C@H](NC(=O)[C@H](Cc1ccccc1)NC(=O)[C@H](CC(N)=O)NC(=O)[C@H](CCCCN)NC(=O)[C@H](CCCCN)NC(=O)[C@H](Cc1c[nH]c2ccccc12)NC(=O)[C@H](C)NC(=O)[C@H](C)NC(=O)[C@H](C)NC(=O)[C@H](C)NC(=O)[C@@H](N)CS)C(=O)N[C@@H](C)C(=O)N[C@H](C(=O)N[C@@H](CO)C(=O)N[C@@H](C)C(=O)N[C@@H](C)C(=O)N[C@@H](CC(N)=O)C(=O)N[C@@H](CCCNC(=N)N)C(=O)N[C@@H](Cc1ccccc1)C(=O)N[C@@H](CCCCN)C(=O)N[C@@H](CCCCN)C(=O)N[C@H](C(=O)N[C@@H](CO)C(N)=O)[C@@H](C)CC)C(C)C [Peptide 2] (H-CAAAAWKKNFIAVSAANRFKKIS-NH2; N-terminus assumed),"dissociation from calmodulin in competition with excess unlabelled peptide, in words",calmodulin,dissociated from calmodulin in a few minutes
same,koff,calmodulin,≥ 0.001 s⁻¹
same,kisom. (s^-1)^A,bovine brain calmodulin [1],1.2 (10.5) × 10^-1 s^-1
same,increase in kon with respect to the wild-type peptide 1,bovine brain calmodulin [2],4-5 fold
same,koff,bovine brain calmodulin [2],0.0015 s⁻¹
same,kon,bovine brain calmodulin [2],3e+06 M⁻¹ s⁻¹
CC[C@H](C)[C@H](NC(=O)[C@H](Cc1ccccc1)NC(=O)[C@H](CC(N)=O)NC(=O)[C@H](CCCCN)NC(=O)[C@H](CCCCN)NC(=O)[C@H](C)NC(=O)[C@H](CCCNC(=N)N)NC(=O)[C@H](C)NC(=O)[C@H](C)NC(=O)[C@H](C)NC(=O)[C@@H](N)CS)C(=O)N[C@@H](C)C(=O)N[C@H](C(=O)N[C@@H](CO)C(=O)N[C@@H](C)C(=O)N[C@@H](C)C(=O)N[C@@H](CC(N)=O)C(=O)N[C@@H](CCCNC(=N)N)C(=O)N[C@@H](Cc1ccccc1)C(=O)N[C@@H](CCCCN)C(=O)N[C@@H](CCCCN)C(=O)N[C@H](C(=O)N[C@@H](CO)C(N)=O)[C@@H](C)CC)C(C)C [Peptide 3] (H-CAAARAKKNFIAVSAANRFKKIS-NH2; N-terminus assumed),"dissociation from calmodulin in competition with excess unlabelled peptide, in words",calmodulin,dissociated from calmodulin in a few minutes
same,koff,calmodulin,≥ 0.001 s⁻¹
same,increase in kon with respect to the wild-type peptide 1,bovine brain calmodulin [2],4-5 fold
same,koff,bovine brain calmodulin [2],0.005 s⁻¹
same,kon,bovine brain calmodulin [2],3.2e+06 M⁻¹ s⁻¹
CC[C@H](C)[C@H](NC(=O)[C@H](Cc1ccccc1)NC(=O)[C@H](CC(N)=O)NC(=O)[C@H](CCCCN)NC(=O)[C@H](C)NC(=O)[C@H](Cc1c[nH]c2ccccc12)NC(=O)[C@H](CCCNC(=N)N)NC(=O)[C@H](C)NC(=O)[C@H](C)NC(=O)[C@H](C)NC(=O)[C@@H](N)CS)C(=O)N[C@@H](C)C(=O)N[C@H](C(=O)N[C@@H](CO)C(=O)N[C@@H](C)C(=O)N[C@@H](C)C(=O)N[C@@H](CC(N)=O)C(=O)N[C@@H](CCCNC(=N)N)C(=O)N[C@@H](Cc1ccccc1)C(=O)N[C@@H](CCCCN)C(=O)N[C@@H](CCCCN)C(=O)N[C@H](C(=O)N[C@@H](CO)C(N)=O)[C@@H](C)CC)C(C)C [Peptide 4] (H-CAAARWAKNFIAVSAANRFKKIS-NH2; N-terminus assumed),koff,calmodulin,≥ 0.001 s⁻¹
same,kisom. (s^-1)^A,bovine brain calmodulin [1],2.4 (10.6) × 10^-1 s^-1
same,koff,bovine brain calmodulin [2],0.003 s⁻¹
same,kon,bovine brain calmodulin [2],1.3e+06 M⁻¹ s⁻¹
CC[C@H](C)[C@H](NC(=O)[C@H](Cc1ccccc1)NC(=O)[C@H](CC(N)=O)NC(=O)[C@H](C)NC(=O)[C@H](CCCCN)NC(=O)[C@H](Cc1c[nH]c2ccccc12)NC(=O)[C@H](CCCNC(=N)N)NC(=O)[C@H](C)NC(=O)[C@H](C)NC(=O)[C@H](C)NC(=O)[C@@H](N)CS)C(=O)N[C@@H](C)C(=O)N[C@H](C(=O)N[C@@H](CO)C(=O)N[C@@H](C)C(=O)N[C@@H](C)C(=O)N[C@@H](CC(N)=O)C(=O)N[C@@H](CCCNC(=N)N)C(=O)N[C@@H](Cc1ccccc1)C(=O)N[C@@H](CCCCN)C(=O)N[C@@H](CCCCN)C(=O)N[C@H](C(=O)N[C@@H](CO)C(N)=O)[C@@H](C)CC)C(C)C [Peptide 5] (H-CAAARWKANFIAVSAANRFKKIS-NH2; N-terminus assumed),koff,calmodulin,0.00021 s⁻¹
same,kisom. (s^-1)^A,bovine brain calmodulin [1],7.4 (11.0) × 10^-2 s^-1
same,koff,bovine brain calmodulin [2],0.00029 s⁻¹
same,kon,bovine brain calmodulin [2],1.1e+06 M⁻¹ s⁻¹
CC[C@H](C)[C@H](NC(=O)[C@H](Cc1ccccc1)NC(=O)[C@H](C)NC(=O)[C@H](CCCCN)NC(=O)[C@H](CCCCN)NC(=O)[C@H](Cc1c[nH]c2ccccc12)NC(=O)[C@H](CCCNC(=N)N)NC(=O)[C@H](C)NC(=O)[C@H](C)NC(=O)[C@H](C)NC(=O)[C@@H](N)CS)C(=O)N[C@@H](C)C(=O)N[C@H](C(=O)N[C@@H](CO)C(=O)N[C@@H](C)C(=O)N[C@@H](C)C(=O)N[C@@H](CC(N)=O)C(=O)N[C@@H](CCCNC(=N)N)C(=O)N[C@@H](Cc1ccccc1)C(=O)N[C@@H](CCCCN)C(=O)N[C@@H](CCCCN)C(=O)N[C@H](C(=O)N[C@@H](CO)C(N)=O)[C@@H](C)CC)C(C)C [Peptide 6] (H-CAAARWKKAFIAVSAANRFKKIS-NH2; N-terminus assumed),"dissociation from calmodulin in competition with excess unlabelled peptide, in words",calmodulin,hardly competed by an excess of unlabelled peptide after 1000 minutes
same,koff,calmodulin,2.2e-06 s⁻¹
same,kisom. (s^-1)^A,bovine brain calmodulin [1],1.8 (10.9) × 10^-1 s^-1
same,"improvement of koff with respect to wild type, in words",bovine brain calmodulin [2],largest improvements
same,koff,bovine brain calmodulin [2],≥ 0.0001 s⁻¹
same,kon,bovine brain calmodulin [2],980000 M⁻¹ s⁻¹
same,"improvement in Kd / affinity for calmodulin over the wild type peptide, in words",bovine brain calmodulin [2]; Table 1,greatest improvement in affinity; also recorded: greatest improvement in Kd
CC[C@H](C)[C@H](NC(=O)[C@H](C)NC(=O)[C@H](CC(N)=O)NC(=O)[C@H](CCCCN)NC(=O)[C@H](CCCCN)NC(=O)[C@H](Cc1c[nH]c2ccccc12)NC(=O)[C@H](CCCNC(=N)N)NC(=O)[C@H](C)NC(=O)[C@H](C)NC(=O)[C@H](C)NC(=O)[C@@H](N)CS)C(=O)N[C@@H](C)C(=O)N[C@H](C(=O)N[C@@H](CO)C(=O)N[C@@H](C)C(=O)N[C@@H](C)C(=O)N[C@@H](CC(N)=O)C(=O)N[C@@H](CCCNC(=N)N)C(=O)N[C@@H](Cc1ccccc1)C(=O)N[C@@H](CCCCN)C(=O)N[C@@H](CCCCN)C(=O)N[C@H](C(=O)N[C@@H](CO)C(N)=O)[C@@H](C)CC)C(C)C [Peptide 7] (H-CAAARWKKNAIAVSAANRFKKIS-NH2; N-terminus assumed),koff,calmodulin,0.0006 s⁻¹
same,kisom. (s^-1)^A,bovine brain calmodulin [1],2.5 (10.7) × 10^-1 s^-1
same,koff,bovine brain calmodulin [2],0.00039 s⁻¹
same,kon,bovine brain calmodulin [2],900000 M⁻¹ s⁻¹
